Measurements as given in ChEMBL document CHEMBL5370583, “Cytotoxic Ergosteroids from a Strain of the Fungus Talaromyces adpressus” (J Nat Prod, 2023).
Activity calls are given as the source filed them. No cut-off for these calls is given here.

Legend:
[1] = Immunosuppressive activity in C57BL/6J mouse B-lymphocyte assessed as inhibition of LPS-induced cell proliferation at 0.3125 to 40 uM incubated for 72 hrs by flow cytometry analysis; format: functional, cell-based; details: dose 0.3125-40 µM
SU-DHL-2 [2] = assay: Cytotoxicity against human SUDHL2 cells assessed as cell growth inhibition by MTT assay; format: functional, cell-based
A549 = assay: Cytotoxicity against human A549 cells assessed as cell growth inhibition by MTT assay; format: functional, cell-based
HepG2 = assay: Cytotoxicity against human HepG2 cells assessed as cell growth inhibition by MTT assay; format: functional, cell-based
HL-60 = assay: Cytotoxicity against human HL-60 cells assessed as cell growth inhibition by MTT assay; format: functional, cell-based
[3] = Cytotoxicity against human […] cells assessed as cell growth inhibition by MTT assay; format: functional, cell-based
SU-DHL-2 [4] = assay: Induction of apoptosis in human SUDHL2 cells assessed as late apoptotic cells at 10 uM measured by Annexin V-FITC/PI staining based flow cytometry assay (reference value: 3.10%); format: functional
SU-DHL-2 [5] = assay: Induction of apoptosis in human SUDHL2 cells assessed as viable cells at 10 uM measured by Annexin V-FITC/PI staining based flow cytometry assay (reference value: 92.2%); format: functional; details: read-out: Activity
SU-DHL-2 [6] = assay: Induction of apoptosis in human SUDHL2 cells assessed as necrotic cells at 2 uM measured by Annexin V-FITC/PI staining based flow cytometry assay (reference value: 0.23%); format: functional
SU-DHL-2 [7] = assay: Induction of apoptosis in human SUDHL2 cells assessed as viable cells at 2 uM measured by Annexin V-FITC/PI staining based flow cytometry assay (reference value: 92.2%); format: functional; details: read-out: Activity
SU-DHL-2 [8] = assay: Induction of apoptosis in human SUDHL2 cells assessed as necrotic cells at 10 uM measured by Annexin V-FITC/PI staining based flow cytometry assay (reference value: 0.23%); format: functional
SU-DHL-2 [9] = assay: Induction of apoptosis in human SUDHL2 cells assessed as early apoptotic cells at 10 uM measured by Annexin V-FITC/PI staining based flow cytometry assay (reference value: 4.52%); format: functional
SU-DHL-2 [10] = assay: Induction of apoptosis in human SUDHL2 cells assessed as late apoptotic cells at 2 uM measured by Annexin V-FITC/PI staining based flow cytometry assay (reference value: 3.10%); format: functional
SU-DHL-2 [11] = assay: Induction of apoptosis in human SUDHL2 cells assessed as early apoptotic cells at 2 uM measured by Annexin V-FITC/PI staining based flow cytometry assay (reference value: 4.52%); format: functional
B-cell line = assay: Immunosuppressive activity in C57BL/6J mouse B-lymphocyte assessed as inhibition of LPS-induced cell proliferation incubated for 72 hrs by flow cytometry analysis; format: functional, cell-based

CC(C)[C@@H](C)/C=C/[C@@H](C)[C@H]1CC(=O)C2=C3[C@H](O)[C@H]4O[C@]45C[C@@H](O)CC[C@]5(C)[C@@]3(O)CC[C@@]21C
inhibition [1]: inactive

COc1cc([C@@H]2c3cc4c(cc3[C@@H](O[C@@H]3O[C@@H]5CO[C@@H](C)O[C@H]5[C@H](O)[C@H]3O)[C@H]3COC(=O)[C@H]23)OCO4)cc(OC)c1O [ETOPOSIDE]
IC50 (SU-DHL-2 [2]): 2.1 µM | IC50 (A549): 10 µM | IC50 (HepG2): 21 µM | IC50 (HL-60): 2.1 µM | IC50 [3]: 52 µM

CO[C@@H]1C=C2C=CC3=C4C(=O)C[C@H]([C@H](C)/C=C/[C@H](C)C(C)C)[C@@]4(C)CC[C@]3(O)[C@@]2(C)CC1
IC50 (SU-DHL-2 [2]): > 40 µM | IC50 (A549): > 40 µM | inhibition [1]: inactive | IC50 (HepG2): > 40 µM | IC50 (HL-60): 25 µM | IC50 [3]: > 40 µM

COC(=O)[C@@]12CC[C@@]3(C)[C@]1(O)C(=O)C=C1[C@]4(O)CC[C@H]([C@H](C)/C=C/[C@H](C)C(C)C)[C@@]4(C)CC[C@@]13OO2
IC50 (SU-DHL-2 [2]): > 40 µM | IC50 (A549): > 40 µM | inhibition [1]: inactive | IC50 (HepG2): > 40 µM | IC50 (HL-60): > 40 µM | IC50 [3]: > 40 µM

C=C(CC[C@@H](C(=O)O)[C@H]1CC[C@H]2C3=C[C@@H](O)[C@@]45O[C@@H]4[C@H](O)[C@@H]4O[C@@H]4[C@]5(C)[C@H]3CC[C@]12C)C(C)C
IC50 (SU-DHL-2 [2]): > 40 µM | IC50 (A549): > 40 µM | inhibition [1]: inactive | IC50 (HepG2): > 40 µM | IC50 (HL-60): > 40 µM | IC50 [3]: > 40 µM

CC(C)[C@@H](C)/C=C/[C@@H](C)[C@H]1CC(=O)C2=C3[C@H](O)[C@H]4O[C@]45C[C@@H](O)CC[C@]5(C)[C@H]3CC[C@@]21C
inhibition [1]: inactive

CC(C)[C@@H](C)/C=C/[C@@H](C)[C@H]1CC[C@]2(O)C3=CC(=O)[C@@H]4[C@@]5(O)CC[C@]4(C)[C@]3(CC[C@]12C)OC5=O
inhibition [1]: inactive

CC(C)[C@@H](C)/C=C/[C@@H](C)[C@H]1CCC(=O)[C@]23CC(=O)[C@@H]4CC(=O)CC[C@]4(C)[C@H]2CC[C@]13C
inhibition [1]: inactive

CC(=O)O[C@@H]1C[C@]2(C)[C@@H]([C@H](C)/C=C/[C@H](C)C(C)(C)O)CC[C@H]2C2=CC(=O)[C@H]3CC(=O)CC[C@]3(C)[C@H]21
IC50 (SU-DHL-2 [2]): 19 µM | IC50 (A549): 22 µM | inhibition [1]: inactive | IC50 (HepG2): 25 µM | IC50 (HL-60): 11 µM | IC50 [3]: 9.2 µM

CO[C@@H]1C=C2[C@@H]3CC[C@H]([C@H](C)/C=C/[C@H](C)C(C)C)[C@@]3(C)C[C@H]3O[C@@]23[C@@]2(C)CC[C@H](O)C[C@]12O
IC50 (SU-DHL-2 [2]): 0.4 µM | IC50 (A549): 18 µM | Activity (SU-DHL-2 [4]): 54% | viability at 10 µM (SU-DHL-2 [5]): 26.9% | Activity (SU-DHL-2 [6]): 0.87% | inhibition [1]: inactive | viability at 2 µM (SU-DHL-2 [7]): 78.2% | Activity (SU-DHL-2 [8]): 4.02% | Activity (SU-DHL-2 [9]): 15% | Activity (SU-DHL-2 [10]): 14.3% | IC50 (HepG2): 24 µM | IC50 (HL-60): 6.1 µM | IC50 [3]: 14 µM | Activity (SU-DHL-2 [11]): 6.67%

COC(=O)[C@@]12CC[C@@]3(C)[C@]1(O)C(=O)C=C1[C@@]4(O)CC[C@H]([C@H](C)/C=C/[C@H](C)C(C)C)[C@@]4(C)CC[C@@]13OO2
IC50 (SU-DHL-2 [2]): > 40 µM | IC50 (A549): > 40 µM | inhibition [1]: inactive | IC50 (HepG2): > 40 µM | IC50 (HL-60): 32 µM | IC50 [3]: > 40 µM

C=C(CC[C@@H](C(=O)O)[C@H]1CC[C@H]2C3=C[C@@H](O)[C@@]45O[C@@H]4C(=O)C=C[C@]5(C)[C@H]3CC[C@]12C)C(C)C
IC50 (SU-DHL-2 [2]): 6.9 µM | IC50 (A549): > 40 µM | inhibition [1]: inactive | IC50 (HepG2): 24 µM | IC50 (HL-60): 7.3 µM | IC50 [3]: 13 µM

CC(C)[C@@H](C)/C=C/[C@@H](C)[C@H]1CC[C@@]2(O)C3=CC(=O)C4=CC(=O)CC[C@]4(C)[C@@]3(O)CC[C@]12C
inhibition [1]: inactive

CC(C)[C@@H](C)/C=C/[C@@H](C)[C@H]1CC[C@]2(O)C3=CC(=O)C4=CC(=O)CC[C@]4(C)[C@@]3(O)CC[C@]12C
IC50 (SU-DHL-2 [2]): 7.5 µM | IC50 (A549): 31 µM | inhibition [1]: inactive | IC50 (HepG2): 19 µM | IC50 (HL-60): 8.8 µM | IC50 [3]: 30 µM

COC1(OC)CC[C@@]2(C)[C@H](C1)C(=O)C=C1[C@@H]2[C@H](OC(C)=O)C[C@]2(C)[C@@H]([C@H](C)/C=C/C(C)C(C)(C)O)CC[C@@H]12 (single isomer, unassigned)
IC50 (SU-DHL-2 [2]): 25 µM | IC50 (A549): 13 µM | inhibition [1]: inactive | IC50 (HepG2): 29 µM | IC50 (HL-60): 8.3 µM | IC50 [3]: 11 µM

CC(C)[C@@H](C)/C=C/[C@@H](C)[C@H]1CCC(=O)[C@]23CC(=O)C4=CC(=O)CC[C@]4(C)[C@H]2CC[C@]13C [DANKASTERONE A]
IC50 (SU-DHL-2 [2]): 6.6 µM | IC50 (A549): 25 µM | inhibition [1]: inactive | IC50 (HepG2): 12 µM | IC50 (HL-60): 3.8 µM | IC50 [3]: > 40 µM

CC(C)[C@@H](C)/C=C/[C@@H](C)[C@H]1C[C@@H](O)C2=C3C=CC4=CC(=O)CC[C@]4(C)[C@@]3(O)CC[C@@]21C
IC50 (SU-DHL-2 [2]): > 40 µM | IC50 (A549): > 40 µM | IC50 (HepG2): > 40 µM | IC50 (B-cell line): 8.6 µM | IC50 (HL-60): > 40 µM | IC50 [3]: > 40 µM
